Entries after “also recorded” stand apart in the source; their conditions may differ. Where two headings read alike, the source gives them in different places.
Key:
isolated rabbit vagina = assay: Relaxation of precontracted (1 μM phenylephrine) isolated rabbit vaginal strips; type: cell-based
Protocol: 3.7 (a). Rabbit vagina in vitro preparation:—Female New Zealand white rabbits (2.0-3.0 kg) were killed by cervical dislocation. The abdominal cavity was opened and the vagina excised. Tissue strips were mounted longitudinally in Wesley Co. 5 ml silanised organ chambers with braided silk sutures (6/0 gauge) at an initial resting tension of 1.5 g in Krebs bicarbonate buffer maintained at 37° C. and gassed with 95%O2/5%CO2. The upper ligature of each tissue strip was attached to a 10 g capacity force-displacement transducer and changes in isometric force were measured and recorded using a DART in vitro data capture system. Tissues were allowed to equilibrate for 1.5 hours and were regularly washed with Krebs.
Each tissue was contracted using 1 μM bath concentration of phenylephrine. […] Tissues then received either a test agent (eg NEP or PDE inhibitor) or DMSO vehicle (time matched control).
For the purpose of curve fitting the minimum relaxation response was constrained to 0% and the maximum relaxation response was allowed to free fit.

[1] = system: human vaginal smooth muscles cell cultures; conditions: VIP 0.5 μM; Traish 1999; cited from earlier work
anaesthetised rabbit = system: anaesthetised rabbit
Protocol: Female New Zealand rabbits (˜2.5 kg) were pre-medicated with a combination of Medetomidine (Domitor®) 0.5 ml/kg i.m., and Ketamine (Vetalar®) 0.25 ml/kg i.m. whilst maintaining oxygen intake via a face mask. The rabbits were tracheotomised using a Portex™ uncuffed endotracheal tube 3 ID., connected to ventilator and maintained at a ventilation rate of 30-40 breaths per minute, with an approximate tidal volume of 18-20 ml, and a maximum airway pressure of 10 cm H2O. Anaesthesia was then switched to Isoflurane and ventilation continued with O2 at 2 l/min. The right marginal ear vein was cannulated using a 23G or 24G catheter, and Lactated Ringer solution perfused at 0.5 ml/min. The rabbit was maintained at 3% Isoflurane during invasive surgery, dropping to 2% for maintenance anaesthesia.
The left groin area of the rabbit was shaved and a vertical incision was made approximately 5 cm in length along the thigh. The femoral vein and artery were exposed, isolated and then cannulated with a PVC catheter (17G) for the infusion of drugs and compounds. Cannulation was repeated for the femoral artery, inserting the catheter to a depth of 10 cm to ensure that the catheter reached the abdominal aorta. This arterial catheter was linked to a Gould system to record blood pressure. Samples for blood gas analysis were also taken via the arterial catheter. Systolic and diastolic pressures were measured, and the mean arterial pressure calculated using the formula (diastolic x2÷systolic)+3. Heart rate was measured via the pulse oxymeter and Po-ne-mah data acquisition software system (Ponemah Physiology Platform, Gould Instrument Systems Inc).

[2] = system: anaesthetised rabbit model of sexual arousal; assay: Increase in clitoral blood flow after iv infusion of vasoactive agents, anaesthetised rabbit model; type: in vivo; conditions: VIP 200 μg/kg iv infusion
Source text: (§1) A ventral midline incision was made, at the caudal end of the pubis, to expose the pubic area. Connective tissue was removed to expose the tunica of the clitoris, ensuring that the wall was free from small blood vessels. The external vaginal wall was also exposed by removing any connective tissue. One laser Doppler flow probe was inserted 3 cm into the vagina, so that half the probe shaft was still visible. A second probe was positioned so that it lay just above the external clitoral wall. The position of these probes was then adjusted until a signal was obtained. A second probe was placed just above the surface of a blood vessel on the external vaginal wall. Both probes were clamped in position.
(§2) Vaginal and clitoral blood flow was recorded either as numbers directly from the Flowmeter using Po-ne-mah data acquisition software (Ponemah Physiology Platform, Gould Instrument Systems Inc), or indirectly from Gould chart recorder trace. Calibration was set at the beginning of the experiment (0-125 ml/min/100 g tissue).

[3] = system: anaesthetised rabbit model of sexual arousal; assay: Increase in vaginal blood flow after iv infusion of vasoactive agents, anaesthetised rabbit model of sexual arousal (laser Doppler); type: in vivo
Source text: as §1, §2
An initial infusion of Hepsaline (50UI/ml) was infused to act as a negative control.

Q: Which “relaxation of precontracted isolated vagina” value (isolated rabbit vagina; VIP 0.1 μM) does the source give for `CC[C@H](C)[C@H](NC(=O)[C@H](CO)NC(=O)[C@H](CC(N)=O)NC(=O)[C@H](CC(C)C)NC(=O)[C@H](Cc1ccc(O)cc1)NC(=O)[C@H](CCCCN)NC(=O)[C@H](CCCCN)NC(=O)[C@@H](NC(=O)[C@H](C)NC(=O)[C@H](CCSC)NC(=O)[C@H](CCC(N)=O)NC(=O)[C@H](CCCCN)NC(=O)[C@H](CCCNC(=N)N)NC(=O)[C@H](CC(C)C)NC(=O)[C@H](CCCNC(=N)N)NC(=O)[C@@H](NC(=O)[C@H](Cc1ccc(O)cc1)NC(=O)[C@H](CC(N)=O)NC(=O)[C@H](CC(=O)O)NC(=O)[C@@H](NC(=O)[C@H](Cc1ccccc1)NC(=O)[C@@H](NC(=O)[C@H](C)NC(=O)[C@H](CC(=O)O)NC(=O)[C@H](CO)NC(=O)[C@@H](N)Cc1c[nH]cn1)C(C)C)[C@@H](C)O)[C@@H](C)O)C(C)C)C(=O)N[C@@H](CC(C)C)C(=O)N[C@@H](CC(N)=O)C(N)=O` [VIP, Vasoactive intestinal peptide] here?
A: Its value is “circa 80%”.

Q: And the EC50 (isolated rabbit vagina; precontracted with 1 μM phenylephrine, read-out: EC50 for relaxation in isolated vaginal tissue)?
A: The EC50 was 18.8 ± 0.6 nM.

Q: And the “effect on cAMP levels in vaginal smooth muscle cell cultures” value [1]?
A: Its value is “no effect; also recorded: fails to elevate”.

Q: And the “increase in heart rate” value (anaesthetised rabbit; VIP 6.0 μg/kg iv)?
A: Its value is 16±4 beats per minute.

Q: What about the “reduction in mean arterial blood pressure” value (anaesthetised rabbit; VIP 6.0 μg/kg iv) of the same compound?
A: Its value is 13.2±0.7 mm Hg.

Q: And the “increase in heart rate” value (anaesthetised rabbit; VIP 60.0 μg/kg iv)?
A: The value was 111±30 beats per minute.

Q: And the “reduction in mean arterial blood pressure” value (anaesthetised rabbit; VIP 60.0 μg/kg iv)?
A: The value was 14.7±1.37 mm Hg.

Q: And the “subsequent increase in mean arterial blood pressure” value (anaesthetised rabbit; VIP 60.0 μg/kg iv, following heart rate increase)?
A: Its value is 8.5±1.4 mm Hg.

Q: What about the “effect on mean arterial blood pressure” value (anaesthetised rabbit; anaesthetised rabbit) of the same compound?
A: The value was “significant depression”.

Q: And the “increase in clitoral blood flow” value [2]?
A: Its value is 115%.

Q: And the “increase in vaginal blood flow” value ([3]; VIP 60 μg/kg intravenous)?
A: Its value is 24.7±3.6 ml/min/100 g tissue.

Q: What about the “time blood flow remained elevated above basal post-infusion” value ([3]; VIP 60 μg/kg intravenous) of the same compound?
A: The value was “about 11 minutes”.

Q: What about the “increase in vaginal blood flow” value ([3]; VIP 6.0 g/kg (so in the source)) of the same compound?
A: The value was 7.5±1.3 ml/min/100 g tissue.

Source: US6734186B1, “Compounds for the treatment of female sexual dysfunction” (Pfizer Inc., priority 1999, dated 2004)
